Laboratory results reported in patent US20180265467A1, “PYRAZOLIDINE DERIVATIVES AND RELATED COMPOUNDS” (SELVITA S.A., priority 2015, published 2018).

Experiments:
[1] = target: T1, LDHA (Homo sapiens, UniProt P00338); assay: LDHA assay (decrease in NADH fluorescence); format: biochemical; settings: numeric bound given instead of a class symbol
T1 construct: purchased Abcam ab93699
Procedure: LDHA and LDHB inhibitory activity of compounds of the present invention is quantified employing the decrease in fluorescence of the cofactor—NADH (being the result of oxidation of NADH to NAD+), over the reaction. […] All the experiments are performed in duplicates in a 96-well plate system (black, flat bottom, non-binding).
The procedure for preparation of the experimental plate is as follows (total volume of the reaction mixture: 200 μL/well):
Conditions for LDHA (Abcam, Cat. No# ab93699) Assay
Mixture of appropriate 1× concentrated reaction buffer (175 μL/well) and 40× concentrated LDHA (5 μL/well); pre-incubate for 30 mins at RT is combined with 20× concentrated pyruvate (10 μL/well) and 20× concentrated NADH (10 μL/well). Tested compounds are dissolved in solvent (DMSO, MeOH, EtOH), and then transferred to the V-bottom 96-well plate (mother plate). Single dilution (for % of inhibition determination) or 8-serial dilutions (for IC50 determination) are prepared using the appropriate solvent. The level of NADH fluorescence is then measured using multimode microplate reader (EnSpire, Perkin Elmer). The reaction should be monitored over 20 minutes with the full plate read performed each 5 minutes. Enzymatic reaction should be run at RT.
IC50 is a quantitative measure that indicates how much of a particular compound (inhibitor) is needed to inhibit a given biological process by half. […]

[2] = tested on: SNU-398 cells; assay: SNU-398 cellular lactate production assay; format: cell-based; settings: Snu398 cells; shown in FIG. 1
Procedure: In each case, and by methods known to those practiced, measurement of cellular lactate production is used to measure the activity of compounds on cancer cells.
Cells are seeded on 96-well plate in complete culture medium (200 μL media/well) at a density of 80,000 SNU-398 cells/well. The following day, eight serial dilutions of the test compound is prepared in complete culture medium and added to cells in a fresh media for 2 h. Following incubation 30 μL of culture medium from each well is transferred to a corresponding well on a new 96-well plate. In parallel Lactate Standard (30 μL/well) (Sigma, Cat. # L7022) is prepared in order to create a standard curve. 60 μL of Lactate Reagent (P000024, M Dialysis AB) is added to each well containing lactate standards or test samples and Incubated in dark for 10 min at RT followed by measurement of OD at 530 nm in a microplate reader.
Background subtracted values derived from the lactate standard and sample readings are used to determine ED50 (or % of inhibition) from data obtained in SNU-398 cellular lactate production assay:
ED50 is a quantitative measure that indicates how much of a particular compound is needed to reduce SNU-398 lactate production by half. After normalization to DMSO-control, the value of ED50 is determined by the GraphPad Prism 5.0 [log(inhibitor) vs. normalized response—Variable slope]. […]

IC50 [1] | Compound | Inhibition of lactate production [2]
> 300 µM | O=C1N[C@H](Cc2ccccc2)C(O)=C1Sc1cc(Br)ccc1Cl [Example 6E, 5-benzyl-3-[(5-bromo-2-chlorophenyl)sulfanyl]pyrrolidine-2,4-dione] | 
 | O=c1c(Sc2ccccc2Cl)c(O)[nH]n1C(c1ccccc1)c1ccc(N2CCOCC2)cc1 (centres unmarked) [Example 8A, Ammonium 4-[(2-chlorophenyl)sulfanyl]-2-{[4-(morpholin-4-yl)phenyl](phenyl)methyl}-5-oxo-2,5-dihydro-1H-pyrazol-3-olate] | Inhibition of lactate production
